According to patent US9850225B2, “Compounds useful as immunomodulators” (BRISTOL-MYERS SQUIBB COMPANY, priority 2014, dated 2017):

Biological target: PD-1/PD-L1 interaction (PD-1-Ig / PD-L1-His) (Homo sapiens (Human), UniProt Q9NZQ7)
Experiment: PD-1/PD-L1 Homogenous Time-Resolved Fluorescence (HTRF) binding assay
Details: PD-1/PD-L1 HTRF binding assay; numeric value; read-out: Range or IC50
From the text: The ability of the compounds of formula (I) to bind to PD-L1 was investigated using a PD-1/PD-L1 Homogenous Time-Resolved Fluorescence (HTRF) binding assay.
Homogenous Time-Resolved Fluorescence (HTRF) Binding Assay.
The interaction of PD-1 and PD-L1 can be assessed using soluble, purified preparations of the extracellular domains of the two proteins. The PD-1 and PD-L1 protein extracellular domains were expressed as fusion proteins with detection tags, for PD-1, the tag was the Fc portion of Immunoglobulin (PD-1-Ig) and for PD-L1 it was the 6 histidine motif (PD-L1-His). All binding studies were performed in an HTRF assay buffer consisting of dPBS supplemented with 0.1% […] bovine serum albumin and 0.05% (v/v) Tween-20. For the h/PD-L1-His binding assay, inhibitors were pre-incubated with PD-L1-His (10 nM final) for 15 m in 4 μl of assay buffer, followed by addition of PD-1-Ig (20 nM final) in 1 μl of assay buffer and further incubation for 15 m. HTRF detection was achieved using europium crypate-labeled anti-Ig (1 nM final) and allophycocyanin (APC) labeled anti-His (20 nM final). Antibodies were diluted in HTRF detection buffer and 5 μl was dispensed on top of the binding reaction. […] Additional binding assays were established between the human proteins PD-1-Ig/PD-L2-His (20 & 5 nM, respectively) and CD80-His/PD-L1-Ig (100 & 10 nM, respectively). […]

Sequence of PD-1/PD-L1 interaction (PD-1-Ig / PD-L1-His) (Q9NZQ7 other isoform, or with tags, fused parts or gaps): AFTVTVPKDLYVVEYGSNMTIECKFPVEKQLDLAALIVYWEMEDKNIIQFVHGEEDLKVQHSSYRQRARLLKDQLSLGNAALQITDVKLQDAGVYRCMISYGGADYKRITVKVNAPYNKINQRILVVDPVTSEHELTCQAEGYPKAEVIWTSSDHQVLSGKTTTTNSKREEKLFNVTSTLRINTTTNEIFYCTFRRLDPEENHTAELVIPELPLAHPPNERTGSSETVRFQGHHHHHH

IC50	Compound
4.55 nM	Cc1c(COc2ccc(CN[C@H](CO)C(=O)O)c(OCc3cccc(C#N)c3)c2)cccc1-c1ccccc1 [Example 1016, (R)-2-((2-((3-cyanobenzyl)oxy)-4-((2-methyl-[1,1′-biphenyl]-3-yl)methoxy)benzyl)amino)-3-hydroxypropanoic acid]

Same assay, conditions: PD-1/PD-L1 HTRF binding assay; value given as range class; read-out: Range or IC50

Compound	IC50
CC(=O)NCCNCc1c(C)cc(OCc2cccc(-c3ccc4c(c3)OCCO4)c2C)cc1OCc1cccc(C#N)c1 [Example 1000, N-(2-(2-(3-cyanobenzyloxy)-4-(3-(2,3-dihydrobenzo[b][1,4]dioxin-6-yl)-2-methylbenzyloxy)-6-methylbenzylamino)ethyl)acetamide]	10 to 100 nM
Cc1cc(OCc2cccc(-c3ccc4c(c3)OCCO4)c2C)cc(OCc2cccc(C#N)c2)c1CN[C@H](CO)C(=O)O [Example 1002, (R)-2-(2-(3-cyanobenzyloxy)-4-(3-(2,3-dihydrobenzo[b][1,4]dioxin-6-yl)-2-methylbenzyloxy)-6-methylbenzylamino)-3-hydroxypropanoic acid]	0.6 to 10 nM
Cc1cc(OCc2cccc(-c3ccc4c(c3)OCCO4)c2C)cc(OCc2cccc(C#N)c2)c1CNC[C@@H](O)CC(=O)O [Example 1003, (S)-4-(2-(3-cyanobenzyloxy)-4-(3-(2,3-dihydrobenzo[b][1,4]dioxin-6-yl)-2-methylbenzyloxy)-6-methylbenzylamino)-3-hydroxybutanoic acid]	0.6 to 10 nM
CC(=O)NCCNCc1c(C)cc(OCc2cccc(-c3ccc4c(c3)OCCO4)c2C)cc1OCc1cncc(C#N)c1 [Example 1005, N-(2-(2-((5-cyanopyridin-3-yl)methoxy)-4-(3-(2,3-dihydrobenzo[b][1,4]dioxin-6-yl)-2-methylbenzyloxy)-6-methylbenzylamino)ethyl)acetamide]	0.6 to 10 nM
Cc1cc(OCc2cccc(-c3ccc4c(c3)OCCO4)c2C)cc(OCc2cncc(C#N)c2)c1CNC[C@@H](O)CC(=O)O [Example 1006, (S)-4-(2-((5-cyanopyridin-3-yl)methoxy)-4-(3-(2,3-dihydrobenzo[b][1,4]dioxin-6-yl)-2-methylbenzyloxy)-6-methylbenzylamino)-3-hydroxybutanoic acid]	0.6 to 10 nM
Cc1cc(OCc2cccc(-c3ccc4c(c3)OCCO4)c2C)cc(OCc2cncc(C#N)c2)c1CN[C@H](CO)C(=O)O [Example 1007, (R)-2-(2-((5-cyanopyridin-3-yl)methoxy)-4-(3-(2,3-dihydrobenzo[b][1,4]dioxin-6-yl)-2-methylbenzyloxy)-6-methylbenzylamino)-3-hydroxypropanoic acid]	0.6 to 10 nM
Cc1cc(OCc2cccc(-c3ccc4c(c3)OCCO4)c2C)cc(OCc2cncc(C#N)c2)c1CN[C@](C)(CO)C(=O)O [Example 1008, (R)-2-(2-((5-cyanopyridin-3-yl)methoxy)-4-(3-(2,3-dihydrobenzo[b][1,4]dioxin-6-yl)-2-methylbenzyloxy)-6-methylbenzylamino)-3-hydroxy-2-methylpropanoic acid]	0.6 to 10 nM
Cc1cc(OCc2cccc(-c3ccc4c(c3)OCCO4)c2C)cc(OCc2cncc(C#N)c2)c1CN1CCCC[C@H]1C(=O)O [Example 1009, (S)-1-(2-((5-cyanopyridin-3-yl)methoxy)-4-(3-(2,3-dihydrobenzo[b][1,4]dioxin-6-yl)-2-methylbenzyloxy)-6-methylbenzyl)piperidine-2-carboxylic acid]	0.6 to 10 nM
Cc1cc(OCc2cccc(-c3ccc4c(c3)OCCO4)c2C)cc(OCc2cncc(C#N)c2)c1CN[C@@](C)(CO)C(=O)O [Example 1010, (S)-2-(2-((5-cyanopyridin-3-yl)methoxy)-4-(3-(2,3-dihydrobenzo[b][1,4]dioxin-6-yl)-2-methylbenzyloxy)-6-methylbenzylamino)-3-hydroxy-2-methylpropanoic acid]	0.6 to 10 nM
Cc1c(COc2ccc(CNC[C@@H](O)CC(=O)O)c(OCc3cccc(C#N)c3)c2)cccc1-c1ccccc1 [Example 1011, (S)-4-((2-((3-cyanobenzyl)oxy)-4-((2-methyl-[1,1′-biphenyl]-3-yl)methoxy)benzyl)amino)-3-hydroxybutanoic acid]	0.6 to 10 nM
Cc1c(COc2ccc(CN[C@H](C(=O)O)[C@H](C)O)c(OCc3cccc(C#N)c3)c2)cccc1-c1ccccc1 [Example 1012, (2S,3S)-2-((2-((3-cyanobenzyl)oxy)-4-((2-methyl-[1,1′-biphenyl]-3-yl)methoxy)benzyl)amino)-3-hydroxybutanoic acid]	10 to 100 nM
Cc1c(COc2ccc(CN[C@@H](C(=O)O)[C@@H](C)O)c(OCc3cccc(C#N)c3)c2)cccc1-c1ccccc1 [Example 1013, (2R,3R)-2-((2-((3-cyanobenzyl)oxy)-4-((2-methyl-[1,1′-biphenyl]-3-yl)methoxy)benzyl)amino)-3-hydroxybutanoic acid]	0.6 to 10 nM
Cc1c(COc2ccc(CNC(C)(CO)C(=O)O)c(OCc3cccc(C#N)c3)c2)cccc1-c1ccccc1 (stereo not drawn) [Example 1014, 2-((2-((3-cyanobenzyl)oxy)-4-((2-methyl-[1,1′-biphenyl]-3-yl)methoxy)benzyl)amino)-3-hydroxy-2-methylpropanoic acid]	0.6 to 10 nM

Second part, the compound after the results:

IC50	Compound
0.6 to 10 nM	Cc1c(COc2ccc(CN[C@@H](C(=O)O)[C@H](C)O)c(OCc3cccc(C#N)c3)c2)cccc1-c1ccccc1 [Example 1015, (2R,3S)-2-((2-((3-cyanobenzyl)oxy)-4-((2-methyl-[1,1′-biphenyl]-3-yl)methoxy)benzyl)amino)-3-hydroxybutanoic acid]
0.6 to 10 nM	Cc1c(COc2ccc(CNC(CO)C(=O)O)c(OCc3cccc(C#N)c3)c2)cccc1-c1ccccc1 (stereo not drawn) [Example 1017, 2-((2-((3-cyanobenzyl)oxy)-4-((2-methyl-[1,1′-biphenyl]-3-yl)methoxy)benzyl)amino)-3-hydroxypropanoic acid]
0.6 to 10 nM	Cc1c(COc2ccc(CN[C@@H](CO)C(=O)O)c(OCc3cccc(C#N)c3)c2)cccc1-c1ccccc1 [Example 1018, (S)-2-((2-((3-cyanobenzyl)oxy)-4-((2-methyl-[1,1′-biphenyl]-3-yl)methoxy)benzyl)amino)-3-hydroxypropanoic acid]
0.6 to 10 nM	Cc1c(COc2ccc(CN[C@@](C)(CO)C(=O)O)c(OCc3cccc(C#N)c3)c2)cccc1-c1ccccc1 [Example 1019, (S)-2-((2-((3-cyanobenzyl)oxy)-4-((2-methyl-[1,1′-biphenyl]-3-yl)methoxy)benzyl)amino)-3-hydroxy-2-methylpropanoic acid]
10 to 100 nM	Cc1c(COc2ccc(CNC(CO)(C(=O)O)C(C)C)c(OCc3cccc(C#N)c3)c2)cccc1-c1ccccc1 (stereo not drawn) [Example 1020, 2-((2-((3-cyanobenzyl)oxy)-4-((2-methyl-[1,1′-biphenyl]-3-yl)methoxy)benzyl)amino)-2-(hydroxymethyl)-3-methylbutanoic acid]
0.6 to 10 nM	Cc1c(COc2ccc(CN[C@H](CO)CC(=O)O)c(OCc3cccc(C#N)c3)c2)cccc1-c1ccccc1 [Example 1021, (S)-3-((2-((3-cyanobenzyl)oxy)-4-((2-methyl-[1,1′-biphenyl]-3-yl)methoxy)benzyl)amino)-4-hydroxybutanoic acid]
0.6 to 10 nM	Cc1c(COc2ccc(CN[C@@H](CO)CC(=O)O)c(OCc3cccc(C#N)c3)c2)cccc1-c1ccccc1 [Example 1022, (R)-3-((2-((3-cyanobenzyl)oxy)-4-((2-methyl-[1,1′-biphenyl]-3-yl)methoxy)benzyl)amino)-4-hydroxybutanoic acid]
0.6 to 10 nM	Cc1c(COc2ccc(CN[C@](C)(CO)C(=O)O)c(OCc3cccc(C#N)c3)c2)cccc1-c1ccccc1 [Example 1023, (R)-2-((2-((3-cyanobenzyl)oxy)-4-((2-methyl-[1,1′-biphenyl]-3-yl)methoxy)benzyl)amino)-3-hydroxy-2-methylpropanoic acid]
100 to 20000 nM	CC(=O)NCCNCc1ccc(OCc2cccc(-c3ccccc3)c2C)cc1OCc1ccccc1 [Example 1024, N-(2-((2-(benzyloxy)-4-((2-methyl-[1,1′-biphenyl]-3-yl)methoxy)benzyl)amino)ethyl)acetamide]
100 to 20000 nM	CC(=O)NCCNCc1ccc(OCc2cccc(-c3ccccc3)c2C)cc1OCc1cccc(C)c1 [Example 1025, N-(2-((4-((2-methyl-[1,1′-biphenyl]-3-yl)methoxy)-2-((3-methylbenzyl)oxy)benzyl)amino)ethyl)acetamide]
100 to 20000 nM	CC(=O)NCCNCc1ccc(OCc2cccc(-c3ccccc3)c2C)cc1OCC(F)(F)F [Example 1026, N-(2-((4-((2-methyl-[1,1′-biphenyl]-3-yl)methoxy)-2-(2,2,2-trifluoroethoxy)benzyl)amino)ethyl)acetamide]
100 to 20000 nM	CCCOc1cc(OCc2cccc(-c3ccccc3)c2C)ccc1CNCCNC(C)=O [Example 1027, N-(2-((4-((2-methyl-[1,1′-biphenyl]-3-yl)methoxy)-2-propoxybenzyl)amino)ethyl)acetamide]
10 to 100 nM	CC(=O)NCCNCc1ccc(OCc2cccc(-c3ccccc3)c2C)cc1OCc1cccc(C#N)c1 [Example 1028, N-(2-((2-((3-cyanobenzyl)oxy)-4-((2-methyl-[1,1′-biphenyl]-3-yl)methoxy)benzyl)amino)ethyl)acetamide]
